Target: T1, human GPR119 (Homo sapiens, UniProt Q8TDV5)
T1 construct: expression vector for human GPR119 cDNA (Acc. No. NP_848566); expressed in transfected cells
T1 sequence (Q8TDV5 1-335): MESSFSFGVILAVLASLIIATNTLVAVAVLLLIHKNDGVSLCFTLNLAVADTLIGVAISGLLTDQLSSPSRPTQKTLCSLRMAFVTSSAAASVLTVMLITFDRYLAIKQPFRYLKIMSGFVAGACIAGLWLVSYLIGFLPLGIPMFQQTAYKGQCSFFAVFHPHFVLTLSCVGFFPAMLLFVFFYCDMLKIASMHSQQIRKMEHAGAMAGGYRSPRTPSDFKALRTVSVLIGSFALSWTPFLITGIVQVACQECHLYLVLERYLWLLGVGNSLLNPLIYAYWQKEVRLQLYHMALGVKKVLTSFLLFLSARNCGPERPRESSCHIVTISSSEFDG
Experiment: AlphaScreen cAMP assay, activation of GPR119 in Min-6/hGPR119 cells
Type: cell-based
Settings: MIN6 cells stably transfected with human GPR119; intracellular cAMP; 45 minutes incubation at room temperature
Protocol: The compounds of formula I according to the invention modulate the activity of the G-protein-coupled receptor GPR119. The effect of the compounds on the activation of GPR119 and on the stimulation of intracellular cAMP concentration is determined using the AlphaScreen cAMP Assay Kit (Cat. No. #6760625R) made by PerkinElmer.
MIN6 cells [Miyazaki J et al. Endocrinology. 1990 July; 127(1):126-32] are stably transfected with an expression vector for human GPR119 cDNA (Acc. No. NP_848566). Min-6/hGPR119 cells are cultured in DMEM, 10% FBS, 500 μM β-mercaptoethanol, 0.3 mg/mL Geniticin, 2 mM GlutaMAX at 37° C. 5% CO2. For the assay, the cells are seeded in Optiplates (white, 384-well, 160 W— barcoded, TC, sterile with lid, Cat. No. #6007688 (Perkin Elmer); 10000 cells/well; 50 μl). The plates covered with lids are then incubated for 24 hours at 37° C./5% CO2. After the medium is aspirated from the wells completely, 10 μl of the test compound are added, the compounds are diluted using stimulating buffer (140 mM NaCl, 3.6 mM KCl, 0.5 mM NaH2PO4, 0.5 mM MgSO4, 1.5 mM CaCl2, 10 mM Hepes, 5 mM NaHCO3; pH 7.4. 0.5 mM IBMX and 0.1% BSA, the final DMSO concentration is 1%). After 45 minutes incubation at room temperature (approx. 20° C.), the cAMP concentrations are determined using the AlphaScreen cAMP Assay Kit (Cat. No. #6760625R from PerkinElmer).

| Structure (SMILES) | EC50 [nM] |
| --- | --- |
| CC(C)c1nc(N2CCC([C@H]3Cc4cc(C5=CCN(S(C)(=O)=O)CC5)ncc4O3)CC2)no1 (single isomer, unassigned) [Example 45] | 13 |
| CCc1cnc(N2CCC(C3Cc4cc(-c5ccc(C(=O)NCc6cocn6)cc5)ccc4O3)CC2)nc1 (stereo not drawn) [Example 64] | 33 |
| CCc1cnc(N2CCC(C3Cc4cc(-c5ccc(S(C)(=O)=O)cc5)ccc4O3)CC2)nc1 (stereo not drawn) [Example 1, 5-Ethyl-2-{4-[5-(4-methanesulfonyl-phenyl)-2,3-dihydro-benzofuran-2-yl]-piperidin-1-yl}-pyrimidine] | 21 |
| CCc1cnc(N2CCC(C3Cc4cc(-c5ccc(C(=O)N6CCC(C)(O)C6)cc5)ccc4O3)CC2)nc1 (stereo not drawn) [Example 68] | 60 |
| CS(=O)(=O)c1ccc(-c2cc3c(cn2)O[C@H](C2CCN(c4ncc(Cl)cn4)CC2)C3)cc1 (single isomer, unassigned) [Example 90] | 60 |
| CCc1cnc(N2CCC(C3Cc4cc(-c5ccc(C(=O)NCC(C)(C)CO)cc5)ccc4O3)CC2)nc1 (stereo not drawn) [Example 63] | 112 |
| CCc1cnc(N2CCC(C3Cc4cc(-c5ccc(C(=O)NCCC(C)O)cc5)ccc4O3)CC2)nc1 (stereo not drawn) [Example 66] | 63 |
| Cc1cnc(N2CCC([C@]3(C)Cc4cc(C5=CCN(S(C)(=O)=O)CC5)ncc4O3)CC2)cn1 (single isomer, unassigned) [Example 53] | 20 |
| CCCc1nc(N2CCC([C@@H]3Cc4cc(C5=CCN(S(C)(=O)=O)CC5)ncc4O3)CC2)no1 (single isomer, unassigned) [Example 49] | 25 |
| CCc1cnc(N2CCC(C3Cc4cc(-c5ccc(C(=O)N6CCC(OC)CC6)cc5)ccc4O3)CC2)nc1 (stereo not drawn) [Example 69] | 48 |
| CCc1cnc(N2CCC(C3Cc4cc(-c5ccc(C(=O)NCCC(C)(C)O)cc5)ccc4O3)CC2)nc1 (stereo not drawn) [Example 75] | 81 |
| CCc1cnc(N2CCC(C3Cc4cc(-c5ccc(S(C)(=O)=O)cc5)ncc4O3)CC2)cn1 (stereo not drawn) [Example 11, 2-[1-(5-Ethyl-pyrazin-2-yl)-piperidin-4-yl]-5-(4-methanesulfonyl-phenyl)-2,3-dihydro-furo[2,3-c]pyridine] | 59 |
| CCCc1nc(N2CCC(C3Cc4cc(-c5ccc(CS(C)(=O)=O)cc5)ncc4O3)CC2)no1 (stereo not drawn) [Example 17, 5-(4-Methanesulfonylmethyl-phenyl)-2-[1-(5-propyl-[1,2,4]oxadiazol-3-yl)-piperidin-4-yl]-2,3-dihydro-furo[2,3-c]pyridine] | 21 |
| CC(C)c1noc(N2CCC(C3Cc4cc(-c5ccc(S(C)(=O)=O)cc5)ccc4O3)CC2)n1 (stereo not drawn) [Example 2, 1-(3-Isopropyl-[1,2,4]oxadiazol-5-yl)-4-[5-(4-methanesulfonyl-phenyl)-2,3-dihydro-benzofuran-2-yl]-piperidine] | 27 |
| CCc1cnc(N2CCC(C3Cc4cc(-c5ccc(C(=O)NCC(C)O)cc5)ccc4O3)CC2)nc1 (stereo not drawn) [Example 74] | 52 |
| CS(=O)(=O)c1ccc(-c2cc3c(cn2)OC(C2CCN(c4nc(C(F)(F)F)no4)CC2)C3)cc1 (stereo not drawn) [Example 14, 5-(4-Methanesulfonyl-phenyl)-2-[1-(3-trifluoromethyl-[1,2,4]oxadiazol-5-yl)-piperidin-4-yl]-2,3-dihydro-furo[2,3-c]pyridine] | 29 |
| CCc1cnc(N2CCC(C3Cc4cc(-c5ccc(C(=O)N6CC(OC)C6)cc5)ccc4O3)CC2)nc1 (stereo not drawn) [Example 76] | 59 |
| CCCc1nc(N2CCC(C3Cc4cc(-c5ccc(CS(C)(=O)=O)cc5F)ncc4O3)CC2)no1 (stereo not drawn) [Example 25, 5-(2-Fluoro-4-methanesulfonylmethyl-phenyl)-2-[1-(5-propyl-[1,2,4]oxadiazol-3-yl)-piperidin-4-yl]-2,3-dihydro-furo[2,3-c]pyridine] | 62 |
| CCCc1noc(N2CCC([C@]3(C)Cc4cc(-c5ccc(S(C)(=O)=O)cc5)ncc4O3)CC2)n1 (single isomer, unassigned) [Example 27] | 15 |
| CS(=O)(=O)c1ccc(-c2ccc3c(c2)CC(C2CCN(c4nc(C5CC5)no4)CC2)O3)cc1 (stereo not drawn) [Example 3, 1-(3-Cyclopropyl-[1,2,4]oxadiazol-5-yl)-4-[5-(4-methanesulfonyl-phenyl)-2,3-dihydro-benzofuran-2-yl]-piperidine] | 71 |
| CS(=O)(=O)N1CC=C(c2cc3c(cn2)O[C@H](C2CCN(c4ncc(Cl)cn4)CC2)C3)CC1 (single isomer, unassigned) [Example 86] | 12 |
| CS(=O)(=O)N1CC=C(c2cc3c(cn2)O[C@H](C2CCN(c4ncc(C(F)(F)F)cn4)CC2)C3)CC1 (single isomer, unassigned) [Example 52] | 19 |
| CC(C)(C)c1noc(N2CCC([C@]3(C)Cc4cc(-c5ccc(S(C)(=O)=O)cc5)ncc4O3)CC2)n1 (single isomer, unassigned) [Example 29] | 51 |
| CC(C)c1nc(N2CCC([C@@H]3Cc4cc(C5=CCN(S(C)(=O)=O)CC5)ncc4O3)CC2)no1 (single isomer, unassigned) [Example 46] | 18 |
| C[C@@]1(C2CCN(c3cnc(C(F)(F)F)cn3)CC2)Cc2cc(C3=CCN(S(C)(=O)=O)CC3)ncc2O1 (single isomer, unassigned) [Example 38] | 14 |
| CCc1cnc(N2CCC(C3Cc4cc(-c5ccc(C(=O)NCc6ccccn6)cc5)ccc4O3)CC2)nc1 (stereo not drawn) [Example 73] | 19 |

More lines, in order of falling EC50, values ahead:

| EC50 [nM] | Structure (SMILES) |
| --- | --- |
| 12 | CCc1cnc(N2CCC(C3Cc4cc(-c5ccc(S(C)(=O)=O)cc5)ncc4O3)CC2)nc1 (stereo not drawn) [Example 5, 2-[1-(5-Ethyl-pyrimidin-2-yl)-piperidin-4-yl]-5-(4-methanesulfonyl-phenyl)-2,3-dihydro-furo[2,3-c]pyridine] |
| 11 | CCc1cnc(N2CCC(C3Cc4cc(-c5ccc(C(=O)N6CCOCC6)cc5)ccc4O3)CC2)nc1 (stereo not drawn) [Example 60] |
| 11 | CC(C)c1noc(N2CCC([C@]3(C)Cc4cc(C5=CCN(S(C)(=O)=O)CC5)ncc4O3)CC2)n1 (single isomer, unassigned) [Example 42] |
| 11 | CC(C)c1nc(N2CCC(C3Cc4cc(-c5ccc(S(C)(=O)=O)cc5)ncc4O3)CC2)no1 (stereo not drawn) [Example 8, 2-[1-(5-Isopropyl-[1,2,4]oxadiazol-3-yl)-piperidin-4-yl]-5-(4-methanesulfonyl-phenyl)-2,3-dihydro-furo[2,3-c]pyridine] |
| 10 | COc1cnc(N2CCC([C@H]3Cc4cc(C5=CCN(S(C)(=O)=O)CC5)ncc4O3)CC2)nc1 (single isomer, unassigned) [Example 92] |
| 10 | CS(=O)(=O)c1ccc(-c2cc3c(cn2)O[C@@H](C2CCN(c4ncc(C5CC5)cn4)CC2)C3)cc1 (single isomer, unassigned) [Example 93] |
| 8 | CC(C)(C)c1nc(N2CCC(C3Cc4cc(C5=CCN(S(C)(=O)=O)CC5)ncc4O3)CC2)no1 (stereo not drawn) [Example 39] |
| 6 | CCCc1nc(N2CCC(C3Cc4cc(C5=CCN(S(C)(=O)=O)CC5)ncc4O3)CC2)no1 (single isomer, unassigned) [Example 44] |
| 6 | C[C@@]1(C2CCN(c3ccc(C(F)(F)F)cn3)CC2)Cc2cc(C3=CCN(S(C)(=O)=O)CC3)ncc2O1 (single isomer, unassigned) [Example 37] |
| 5 | CS(=O)(=O)N1CC=C(c2cc3c(cn2)O[C@@H](C2CCN(c4cnc(C(F)(F)F)cn4)CC2)C3)CC1 (single isomer, unassigned) [Example 80] |
| 3 | CS(=O)(=O)N1CC=C(c2cc3c(cn2)O[C@@H](C2CCN(c4ncc(Cl)cn4)CC2)C3)CC1 (single isomer, unassigned) [Example 83] |
| 3 | CS(=O)(=O)N1CC=C(c2cc3c(cn2)O[C@@H](C2CCN(c4ncc(C5CC5)cn4)CC2)C3)CC1 (single isomer, unassigned) [Example 91] |
| 3 | CS(=O)(=O)N1CC=C(c2cc3c(cn2)O[C@@H](C2CCN(c4ncc(C(F)(F)F)cn4)CC2)C3)CC1 (single isomer, unassigned) [Example 79] |
| 3 | CCc1cnc(N2CCC([C@H]3Cc4cc(C5=CCN(S(C)(=O)=O)CC5)ncc4O3)CC2)nc1 (single isomer, unassigned) [Example 31] |
| 3 | CS(=O)(=O)N1CC=C(c2cc3c(cn2)O[C@@H](C2CCN(c4ccc(C(F)(F)F)cn4)CC2)C3)CC1 (single isomer, unassigned) [Example 82] |
| 2 | CCc1cnc(N2CCC(C3Cc4cc(C5=CCN(S(C)(=O)=O)CC5)ncc4O3)CC2)nc1 (stereo not drawn) [Example 18, 2-[1-(5-Ethyl-pyrimidin-2-yl)-piperidin-4-yl]-5-(1-methanesulfonyl-1,2,3,6-tetrahydro-Pyridin-4-yl)-2,3-dihydro-furo[2,3-c]pyridine] |

— US8778926B2, “Compounds, pharmaceutical compositions and uses thereof” (Boehringer Ingelheim International GmbH, priority 2011, dated 2014)
